Data: US20040210063A1 (priority 2001, published 2004)
Counter-ions that a name gives are not always drawn.

Columns and labels:
human GSK-3β = human GSK-3β (Homo sapiens, UniProt P49841); test: Assay (I): inhibition of GSK-3, 33P-ATP phosphorylation of a glycogen synthase derived substrate; type: biochemical; details: 35 μM substrate, 0.1 mM 33P-labeled ATP, 60 min at room temperature
Procedure: Inhibition of GSK-3 by a test compound was evaluated using human GSK-3β and a glycogen synthase derived substrate with the following amino acid sequence:
In brief, GSK-3β was incubated with 35 μM substrate and varying concentrations of test compound in a buffer containing 0.1 mM ^33P-labeled ATP, 10 mM magnesium acetate, 8 mM MOPS pH 7.0, 0.2 mM EDTA, 0.1% dithiothreitol and 0.03% Triton-X100 for 60 min at room temperature. The reaction was performed using 96-well plates. The reaction was terminated by adding 13 μl 2% phosphoric acid to each well, and 10 μl was spotted onto P30 paper which was washed 4 times in 0.5% phosphoric acid to remove non-incorporated ^33P-labeled ATP. After drying the radioactivity was counted in a Wallac. Dose-response profiles were generated, and the IC50 value for inhibition of GSK-3 by the test compound was calculated using a four-parameter logistic function.

[1] = test system: cyclin-dependent kinases (CDKs); details: at the tested concentration; Table I of WO 99/21845; cited from earlier work

Sequence of human GSK-3β (P49841 whole entry): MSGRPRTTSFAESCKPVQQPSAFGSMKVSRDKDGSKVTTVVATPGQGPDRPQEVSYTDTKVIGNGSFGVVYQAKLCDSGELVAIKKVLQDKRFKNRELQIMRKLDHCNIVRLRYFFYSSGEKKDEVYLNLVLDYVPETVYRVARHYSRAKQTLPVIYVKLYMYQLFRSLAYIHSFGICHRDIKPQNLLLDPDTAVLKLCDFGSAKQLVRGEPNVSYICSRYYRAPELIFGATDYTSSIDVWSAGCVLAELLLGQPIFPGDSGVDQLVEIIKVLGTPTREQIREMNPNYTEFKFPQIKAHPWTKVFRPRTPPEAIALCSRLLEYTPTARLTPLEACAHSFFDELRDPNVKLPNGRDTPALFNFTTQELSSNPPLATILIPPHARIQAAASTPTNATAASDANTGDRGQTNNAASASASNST

Structure (SMILES) | IC50 (human GSK-3β) [nM] | melting point [°C] | CDK inhibition [1]
CC(C)(C)OC(=O)NCCCNc1nc(N)c(C(=O)c2ccc(Cl)s2)s1 [Example 3, 3-[4-Amino-5-(5-chlorothiophene-2-carbonyl)thiazol-2-ylamino]propylcarbamic acid tert-butyl ester] | < 1000 |  | 
CN1CCN(CCCNc2nc(N)c(C(=O)c3ccc(Cl)s3)s2)CC1 (as salt: hydrochloride) [Example 8, {4-Amino-2-[3-(4-methylpiperazin-1-yl)propylamino]thiazol-5-yl}-(5-chlorothiophen-2-yl)methanone] |  | 210 to 212 | 
CN1CCN(CCCNc2nc(N)c(C(=O)c3cccc(OCc4ccccc4)c3)s2)CC1 [Example 10, {4-Amino-2-[3-(4-methylpiperazin-1-yl)propylamino]thiazol-5-yl}-(3-benzyloxyphenyl)methanone] | < 1000 |  | 
Nc1nc(NCCN2CCCCC2)sc1C(=O)c1ccc(F)cc1 [I(6)] |  |  | No CDK inhibition was observed
Nc1nc(NCCCN2CCCC2=O)sc1C(=O)c1ccc(Cl)s1 [Example 7, 1-{3-[4-Amino-5-(5-chlorothiophene-2-carbonyl)thiazol-2-ylamino]propyl}pyrrolidin-2-one] | < 1000 | 224 to 225 | 

Continued, in another order:

IC50 (human GSK-3β) [nM] | melting point [°C] | Structure (SMILES) | CDK inhibition [1]
< 1000 | 184 | Nc1nc(NCCCN2CCCC2=O)sc1C(=O)c1cccc(OCc2ccccc2)c1 [Example 9] | 
< 1000 |  | CC(C)(C)OC(=O)NCCCNc1nc(N)c(C(=O)c2cccc(OCc3ccccc3)c2)s1 [Example 6, {3-[4-Amino-5-(3-benzyloxybenzoyl)thiazol-2-ylamino]propyl}carbamic acid tert-butyl ester] | 
 | 99 to 100 | CN1CCN(CCCNc2nc(N)c(C(=O)c3cccc(OCc4ccccc4)c3)s2)CC1 (as salt: hydrochloride) [Example 10, {4-Amino-2-[3-(4-methylpiperazin-1-yl)propylamino]thiazol-5-yl}-(3-benzyloxyphenyl)methanone] | 
< 1000 |  | CC(C)(C)OC(=O)N1CCC(Nc2nc(N)c(C(=O)c3cccc(OCc4ccccc4)c3)s2)CC1 [Example 5, 4-[4-Amino-5-(3-benzyloxybenzoyl)thiazol-2-ylamino]piperidine-1-carboxylic acid tert-butyl ester] | 
